Assay results taken from patent US10688142B2, “Methods of treatment using a lipid extract of Passiflora seeds concentrated in its unsaponifiable fraction” (Laboratoires Expanscience, priority 2013, dated 2020).
Marks after values point to notes of the source that are not given here.

Tests used:
Format in all cases: cell-based
human mature adipocytes = assay: Lipolysis: release of glycerol by encapsulated mature adipocytes; conditions: 10 μM forskoline, 4 hours
Experimental: Human white adipose tissue carries out a fundamental metabolic function by providing the other tissues in the body with energy molecules in the form of fatty acids released by the adipocyte lipolysis process: adipocytes mobilise energy reserves by hydrolysing stored triglycerides to fatty acids and glycerol; the fatty acids thus released into the bloodstream can be used by other tissues for energy purposes. The effect of the Passiflora concentrate on adipocyte lipolysis was evaluated by assay of glycerol released during hydrolysis of the triglycerides stored in human mature adipocytes cultured in 3 dimensions.
Mature adipocytes, derived from biopsies of subcutaneous adipose tissue taken from five donors (normal-weight or overweight) were isolated and encapsulated in peptide gel allowing their survival and biological functionality in culture. The encapsulated mature adipocytes were incubated in the presence of 0.001% or 0.005% Passiflora concentrate, or 10 μM forskoline (standard) for 4 hours.
After incubation, the released glycerol was assayed in the culture medium using an assay kit (Randox), the values obtained were normalised with the amount of DNA evaluated with a kit (Invitrogen).

collagen I = assay: Expression of dermal matrix components in normal human fibroblasts, real-time quantitative RT-PCR; conditions: TGFβ1 at 5 ng/ml, 24 hours
Experimental: (§1) Normal human dermal fibroblasts were incubated for 24 hours in 1 FCS culture medium in the presence of 0.005% and 0.05% Passiflora concentrate or TGFβ1 at 5 ng/ml (standard). After incubation, the total RNAs were extracted, assayed and retro-transcribed. The gene expression of collagen I and elastin were analysed by real-time quantitative RT-PCR.

elastin = assay: as above; conditions: TGFβ1 at 5 ng/ml, 24 hours
Experimental: as §1

Compound: C=C[C@@]1(C)CC(=O)[C@]2(O)[C@@]3(C)[C@@H](O)CCC(C)(C)[C@@H]3[C@H](O)[C@H](OC(C)=O)[C@@]2(C)O1 [Forskoline, forskoline]
- Stimulation (%) of glycerol release (human mature adipocytes): +660% **
- Release of glycerol (human mature adipocytes; mean of 5 donors, control 1.00): 6.60 Arbitrary unit

Compound: TGFβ1: TGFβ1 at 5 ng/ml (standard) in the dermal matrix gene expression test
- Collagen I gene expression, percentage increase relative to non-treated control (collagen I): +30% ns^
- Collagen I (Relative Quantity) (collagen I; control = 1.00): 1.30
- Elastin gene expression, percentage increase relative to non-treated control (elastin): +40% *
- Elastin (Relative Quantity) (elastin; control = 1.00): 1.40
